Patent US8802724B2, “Processes and intermediates for preparing substituted hexahydrofuro [2,3-b] furans” (Purdue Research Foundation, priority 2010, dated 2014)
Where two headings read alike, the source gives them in different places.

How the values were obtained:
[1] = biological target: HIV-1 protease (Human immunodeficiency virus type 1 group M subtype B (isolate HXB2) (HIV-1), UniProt P04585); assay: biochemical; details: enzymatic inhibitory activity
[2] = tested on: HIV-1LAI; assay: Antiviral MTT assay, MT-2 cells exposed to HIV-1LAI; format: cell-based; details: Human immunodeficiency virus 1, MT2
Experimental: As shown in Scheme 4, alcohols 14, 15, 20, and 21 were activated with p-nitrophenyl chloroformate to provide mixed activated carbonates 21a-d. These carbonates were reacted with amine 22 to afford HIV-1 protease inhibitors 23a-d. These inhibitors were evaluated for their activity in both enzyme inhibitory and antiviral assays. The enzyme inhibitory activity (Ki) was determined according to an assay protocol reported by Toth and Marshall (Toth, M. V.; Marshall, G. R. Int. J. Pep. Protein Res. 1990, 36, 544-550). […] Antiviral IC50 values were determined using the MTT assay (Koh, Y., et al., Antimicrob. Agents Chemother. 2003, 47, 3123-3129.).

Row | SMILES | Ki [1] [nM] | IC50 [2] [nM] | IC50 ([2]; Human T-lymphoid (MT-2) cells exposed to 100 TCID50 of HIV-1LAI, MTT assay, means of at least three experiments, read-out: IC50) [nM]
1 | COc1ccc(S(=O)(=O)N(CC(C)C)C[C@@H](O)[C@H](Cc2ccccc2)NC(=O)O[C@H]2CO[C@H]3OC[C@@H](OC)[C@H]32)cc1 [Compound 23a, (3R,3aS,4S,6aR)-4-methoxyhexahydrofuro[2,3-b]furan-3-yl-(2S,3R)-3-hydroxy-4-(N-isobutyl-4-methoxyphenylsulfonamido)-1-phenylbutan-2-ylcarbamate] | 0.035 | 56 | –
2 | COc1ccc(S(=O)(=O)N(CC(C)C)C[C@@H](O)[C@H](Cc2ccccc2)NC(=O)O[C@H]2CO[C@H]3OC[C@@H](OCc4ccccc4)[C@H]32)cc1 [Compound 23b, (3R,3aS,4S,6aR)-4-(benzyloxy)hexahydrofuro[2,3-b]furan-3-yl-(2S,3R)-3-hydroxy-4-(N-isobutyl-4-methoxyphenylsulfonamido)-1-phenylbutan-2-ylcarbamate] | 0.073 | 335 | –
3 | COc1ccc(S(=O)(=O)N(CC(C)C)C[C@@H](O)[C@H](Cc2ccccc2)NC(=O)O[C@H]2CO[C@H]3OC[C@H](OC)[C@H]32)cc1 [Compound 23c, (3R,3aS,4R,6aR)-4-methoxyhexahydrofuro[2,3-b]furan-3-yl-(2S,3R)-3-hydroxy-4-(N-isobutyl-4-methoxyphenylsulfonamido)-1-phenylbutan-2-ylcarbamate] | 0.0029 | 2.4 | –
4 | COc1ccc(S(=O)(=O)N(CC(C)C)C[C@@H](O)[C@H](Cc2ccccc2)NC(=O)O[C@H]2CO[C@H]3OC[C@H](OCc4ccccc4)[C@H]32)cc1 [Compound 23d, (3R,3aS,4R,6aR)-4-(benzyloxy)hexahydrofuro[2,3-b]furan-3-yl-(2S,3R)-3-hydroxy-4-(N-isobutyl-4-methoxyphenylsulfonamido)-1-phenylbutan-2-ylcarbamate] | 0.3 | – | –
5 | COc1ccc(S(=O)(=O)N(CC(C)C)C[C@@H](O)[C@H](Cc2ccccc2)NC(=O)O[C@H]2CO[C@H]3OCC[C@H]32)cc1 [Entry 1, reference compound] | – | – | 1.4
